Measurements as given in the supplement of paper PMC10307832.

Experiments:
Assay in all cases: relative viability (nuclei count vs DMSO), 5 days (fraction); higher = more cells survive
201T = system: 201T
Summary of the method: (§1)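 Relative viability equals treated-well nuclei counts divided by vehicle-well nuclei counts. Counts came from 4× images of lung cancer cell lines grown in 1536-well plates for 5 days after pin-tool dosing on the day after seeding. Dosing used one drug alone or a fixed anchor-drug dose plus five library-drug doses (not always all listed) in √10 steps, and values are medians of duplicate plates.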

BEN = system: BEN
Summary of the method: as §1

EMC-BAC-2 = system: EMC-BAC-2
Summary of the method: as §1

HARA = system: HARA
Summary of the method: as §1

HCC-44 = system: HCC-44
Summary of the method: as §1

LCLC-103H = system: LCLC-103H
Summary of the method: as §1

LOU-NH91 = system: LOU-NH91
Summary of the method: as §1

NCI-H1395 = system: NCI-H1395
Summary of the method: as §1

NCI-H1993 = system: NCI-H1993
Summary of the method: as §1

NCI-H2023 = system: NCI-H2023
Summary of the method: as §1

NCI-H2087 = system: NCI-H2087
Summary of the method: as §1

NCI-H2126 = system: NCI-H2126
Summary of the method: as §1

NCI-H2347 = system: NCI-H2347
Summary of the method: as §1

NCI-H23 = system: NCI-H23
Summary of the method: as §1

NCI-H3122 = system: NCI-H3122
Summary of the method: as §1

NCI-H441 = system: NCI-H441
Summary of the method: as §1

NCI-H596 = system: NCI-H596
Summary of the method: as §1

NCI-H647 = system: NCI-H647
Summary of the method: as §1

NCI-H650 = system: NCI-H650
Summary of the method: as §1

NCI-H727 = system: NCI-H727
Summary of the method: as §1

NCI-H838 = system: NCI-H838
Summary of the method: as §1

## Cc1sc2c(c1C)C(c1ccc(Cl)cc1)=N[C@@H](CC(=O)OC(C)(C)C)c1nnc(C)n1-2 [JQ1] + Cc1nc(NC(=O)N2CCC[C@H]2C(N)=O)sc1-c1ccnc(C(C)(C)C(F)(F)F)c1 [Alpelisib] (partner 2 µM)
201T; first compound 0.04 µM
  relative viability: 1.02
201T; first compound 0.1265 µM
  relative viability: 0.926
201T; first compound 0.4 µM
  relative viability: 0.939
201T; first compound 1.265 µM
  relative viability: 0.715
201T; first compound 4 µM
  relative viability: 0.567
BEN; first compound 0.04 µM
  relative viability: 0.953
BEN; first compound 0.1265 µM
  relative viability: 0.918
BEN; first compound 0.4 µM
  relative viability: 0.594
BEN; first compound 1.265 µM
  relative viability: 0.332
BEN; first compound 4 µM
  relative viability: 0.273
EMC-BAC-2; first compound 0.04 µM
  relative viability: 0.663
EMC-BAC-2; first compound 0.1265 µM
  relative viability: 0.749
EMC-BAC-2; first compound 0.4 µM
  relative viability: 0.576
EMC-BAC-2; first compound 1.265 µM
  relative viability: 0.439
EMC-BAC-2; first compound 4 µM
  relative viability: 0.386
HARA; first compound 0.04 µM
  relative viability: 0.915
HARA; first compound 0.1265 µM
  relative viability: 0.598
HARA; first compound 0.4 µM
  relative viability: 0.283
HARA; first compound 1.265 µM
  relative viability: 0.266
HARA; first compound 4 µM
  relative viability: 0.156
HCC-44; first compound 0.04 µM
  relative viability: 0.809
HCC-44; first compound 0.1265 µM
  relative viability: 0.518
HCC-44; first compound 0.4 µM
  relative viability: 0.37
HCC-44; first compound 1.265 µM
  relative viability: 0.251
HCC-44; first compound 4 µM
  relative viability: 0.238
LCLC-103H; first compound 0.04 µM
  relative viability: 0.957
LCLC-103H; first compound 0.1265 µM
  relative viability: 0.828
LCLC-103H; first compound 0.4 µM
  relative viability: 0.751
LCLC-103H; first compound 1.265 µM
  relative viability: 0.572
LOU-NH91; first compound 0.04 µM
  relative viability: 0.683
LOU-NH91; first compound 0.1265 µM
  relative viability: 0.664
LOU-NH91; first compound 0.4 µM
  relative viability: 0.458
LOU-NH91; first compound 1.265 µM
  relative viability: 0.491
LOU-NH91; first compound 4 µM
  relative viability: 0.473
NCI-H1395; first compound 0.04 µM
  relative viability: 1.03
NCI-H1395; first compound 0.1265 µM
  relative viability: 0.856
NCI-H1395; first compound 0.4 µM
  relative viability: 0.813
NCI-H1395; first compound 1.265 µM
  relative viability: 0.495
NCI-H1395; first compound 4 µM
  relative viability: 0.404
NCI-H1993; first compound 0.04 µM
  relative viability: 0.705
NCI-H1993; first compound 0.1265 µM
  relative viability: 0.653
NCI-H1993; first compound 0.4 µM
  relative viability: 0.667
NCI-H1993; first compound 1.265 µM
  relative viability: 0.665
NCI-H1993; first compound 4 µM
  relative viability: 0.665
NCI-H2023; first compound 0.04 µM
  relative viability: 0.544
NCI-H2023; first compound 0.1265 µM
  relative viability: 0.651
NCI-H2023; first compound 0.4 µM
  relative viability: 0.531
NCI-H2023; first compound 1.265 µM
  relative viability: 0.213
NCI-H2023; first compound 4 µM
  relative viability: 0.217
NCI-H2087; first compound 0.04 µM
  relative viability: 1.08
NCI-H2087; first compound 0.4 µM
  relative viability: 0.811
NCI-H2087; first compound 1.265 µM
  relative viability: 0.625
NCI-H2087; first compound 4 µM
  relative viability: 0.438
NCI-H2126; first compound 0.04 µM
  relative viability: 0.797
NCI-H2126; first compound 0.1265 µM
  relative viability: 0.682
NCI-H2126; first compound 0.4 µM
  relative viability: 0.681
NCI-H2126; first compound 1.265 µM
  relative viability: 0.516
NCI-H2126; first compound 4 µM
  relative viability: 0.47
NCI-H2347; first compound 0.04 µM
  relative viability: 0.982
NCI-H2347; first compound 0.1265 µM
  relative viability: 0.8
NCI-H2347; first compound 0.4 µM
  relative viability: 0.848
NCI-H2347; first compound 1.265 µM
  relative viability: 0.646
NCI-H2347; first compound 4 µM
  relative viability: 0.477
NCI-H23; first compound 0.04 µM
  relative viability: 0.62
NCI-H23; first compound 0.1265 µM
  relative viability: 0.726
NCI-H23; first compound 0.4 µM
  relative viability: 0.454
NCI-H23; first compound 1.265 µM
  relative viability: 0.292
NCI-H23; first compound 4 µM
  relative viability: 0.297
NCI-H3122; first compound 0.04 µM
  relative viability: 0.833
NCI-H3122; first compound 0.1265 µM
  relative viability: 0.771
NCI-H3122; first compound 0.4 µM
  relative viability: 0.963
NCI-H3122; first compound 1.265 µM
  relative viability: 0.661
NCI-H3122; first compound 4 µM
  relative viability: 0.663
NCI-H441; first compound 0.04 µM
  relative viability: 0.772
NCI-H441; first compound 0.1265 µM
  relative viability: 0.958
NCI-H441; first compound 0.4 µM
  relative viability: 0.692
NCI-H441; first compound 1.265 µM
  relative viability: 0.294
NCI-H441; first compound 4 µM
  relative viability: 0.444
NCI-H596; first compound 0.04 µM
  relative viability: 0.481
NCI-H596; first compound 0.1265 µM
  relative viability: 0.499
NCI-H596; first compound 0.4 µM
  relative viability: 0.437
NCI-H596; first compound 1.265 µM
  relative viability: 0.41
NCI-H596; first compound 4 µM
  relative viability: 0.343
NCI-H647; first compound 0.04 µM
  relative viability: 0.998
NCI-H647; first compound 0.1265 µM
  relative viability: 0.596
NCI-H647; first compound 0.4 µM
  relative viability: 0.447
NCI-H647; first compound 1.265 µM
  relative viability: 0.156
NCI-H647; first compound 4 µM
  relative viability: 0.132
NCI-H650; first compound 0.04 µM
  relative viability: 1.11
NCI-H650; first compound 0.1265 µM
  relative viability: 0.715
NCI-H650; first compound 0.4 µM
  relative viability: 0.707
NCI-H650; first compound 1.265 µM
  relative viability: 0.377
NCI-H650; first compound 4 µM
  relative viability: 0.257
NCI-H727; first compound 0.04 µM
  relative viability: 0.525
NCI-H727; first compound 0.1265 µM
  relative viability: 0.668
NCI-H727; first compound 0.4 µM
  relative viability: 0.445
NCI-H727; first compound 1.265 µM
  relative viability: 0.231
NCI-H727; first compound 4 µM
  relative viability: 0.222
NCI-H838; first compound 0.04 µM
  relative viability: 1.03
NCI-H838; first compound 0.1265 µM
  relative viability: 0.698
NCI-H838; first compound 0.4 µM
  relative viability: 0.882
NCI-H838; first compound 1.265 µM
  relative viability: 0.291
NCI-H838; first compound 4 µM
  relative viability: 0.263
